Source: US12649746B2, “Ketorolaco derivative, pharmaceutical composition and preparation method therefor and use thereof” (NANJING HERON PHARMACEUTICAL SCIENCE AND TECHNOLOGY CO., …, priority 2020, dated 2026)
Entries after “also recorded” stand apart in the source; their conditions may differ.

Test: not given
Settings: elderly patients; cited from earlier work

Row | SMILES | elimination half-life [h]
1 | O=C(c1ccccc1)c1ccc2n1CCC2C(=O)O (racemic) [Ketorolac, (±)-5-benzoyl-2,3-dihydro-1H-pyrrolizine-1-carboxylic acid] | 6 to 7

Same assay, conditions: in vivo; cited from earlier work

Row | SMILES | binding rate to plasma protein | distribution volume [L/kg] | elimination half-life [h] | original drug and metabolites excreted with the urine | total clearance rate [mL/min/kg]
2 | O=C(c1ccccc1)c1ccc2n1CCC2C(=O)O (racemic) [Ketorolac, (±)-5-benzoyl-2,3-dihydro-1H-pyrrolizine-1-carboxylic acid] | more than 99% | 0.1 to 0.3 | 4 to 6 | about 90% | 0.5

Same assay, conditions: oral administration and intramuscular injection; cited from earlier work

Row | SMILES | effective treatment plasma concentration [µg/mL] | peak concentration time of the plasma concentration [min]
3 | O=C(c1ccccc1)c1ccc2n1CCC2C(=O)O (racemic) [Ketorolac, (±)-5-benzoyl-2,3-dihydro-1H-pyrrolizine-1-carboxylic acid] | 0.3 to 5 | 20 to 60

Same assay, conditions: renal insufficiency patients; cited from earlier work

Row | SMILES | elimination half-life [h]
4 | O=C(c1ccccc1)c1ccc2n1CCC2C(=O)O (racemic) [Ketorolac, (±)-5-benzoyl-2,3-dihydro-1H-pyrrolizine-1-carboxylic acid] | 9 to 10

Test: By-product toxicity test (metabolic byproducts in the human body)
Settings: by the metabolic pathways of the compounds in the human body

Row | SMILES | Metabolic by-products in human body
5 | CCOC(=O)OC(C)OC(=O)C1CCn2c(C(=O)c3ccccc3)ccc21 (stereo not shown) [N12] | Acetaldehyde and acetic acid
6 | CC(C)OC(=O)OC(C)OC(=O)C1CCn2c(C(=O)c3ccccc3)ccc21 (stereo not shown) [N2] | Acetaldehyde and isopropyl alcohol
7 | CCCCCCC(=O)OC(C)OC(=O)C1CCn2c(C(=O)c3ccccc3)ccc21 (stereo not shown) [N27] | Acetaldehyde and n-heptanoic acid
8 | CC(OC(=O)C1CCn2c(C(=O)c3ccccc3)ccc21)OC(=O)C1CCn2c(C(=O)c3ccccc3)ccc21 (stereo not shown) [N22] | Acetaldehyde
9 | CC(OC(=O)OC1CCCCC1)OC(=O)C1CCn2c(C(=O)c3ccccc3)ccc21 (stereo not shown) [N10] | Acetaldehyde and cyclohexanol
10 | CC(OC(=O)C(C)C)OC(=O)C1CCn2c(C(=O)c3ccccc3)ccc21 (stereo not shown) [N6] | Acetaldehyde and isobutyric acid

Same assay, conditions: toxicity of the metabolic by-products in human body

Row | SMILES | Toxicity
11 | CCOC(=O)OC(C)OC(=O)C1CCn2c(C(=O)c3ccccc3)ccc21 (stereo not shown) [N12] | low toxicity of byproducts; also recorded: relatively low
12 | CC(C)OC(=O)OC(C)OC(=O)C1CCn2c(C(=O)c3ccccc3)ccc21 (stereo not shown) [N2] | low toxicity of byproducts; also recorded: relatively low
13 | CCCCCCC(=O)OC(C)OC(=O)C1CCn2c(C(=O)c3ccccc3)ccc21 (stereo not shown) [N27] | low
14 | CC(OC(=O)C1CCn2c(C(=O)c3ccccc3)ccc21)OC(=O)C1CCn2c(C(=O)c3ccccc3)ccc21 (stereo not shown) [N22] | relatively low toxicity of byproducts
15 | CC(OC(=O)OC1CCCCC1)OC(=O)C1CCn2c(C(=O)c3ccccc3)ccc21 (stereo not shown) [N10] | relatively low toxicity of byproducts

Test: High temperature stability study of compounds (60° C.)
Type: physicochemical
Settings: in the dark, Day 0
Protocol: Test protocol: the compounds prepared in the present disclosure were placed in a colorless and transparent vial, placed in the dark at a high temperature (60° C.), and were sampled for day 0, day 5 and day 10, respectively, and the purity of the compounds and the change of the related substance (ketorolac) were determined.

Row | Total main peak purity (%) | SMILES
16 | 93.84 | CCOC(=O)OC(C)OC(=O)C1CCn2c(C(=O)c3ccccc3)ccc21 (stereo not shown) [N12]
17 | 95.58 | CC(C)OC(=O)OC(C)OC(=O)C1CCn2c(C(=O)c3ccccc3)ccc21 (stereo not shown) [N2]
18 | 96.36 | CC(OC(=O)OC1CCCCC1)OC(=O)C1CCn2c(C(=O)c3ccccc3)ccc21 (stereo not shown) [N10]

Row | SMILES | Total main peak purity (%)
19 | CC(OC(=O)C(C)C)OC(=O)C1CCn2c(C(=O)c3ccccc3)ccc21 (stereo not shown) [N6] | 91.56

Same assay, conditions: in the dark, Day 5

Row | Total main peak purity (%) | SMILES
20 | 93.59 | CCOC(=O)OC(C)OC(=O)C1CCn2c(C(=O)c3ccccc3)ccc21 (stereo not shown) [N12]
21 | 95.21 | CC(C)OC(=O)OC(C)OC(=O)C1CCn2c(C(=O)c3ccccc3)ccc21 (stereo not shown) [N2]
22 | 94.28 | CC(OC(=O)OC1CCCCC1)OC(=O)C1CCn2c(C(=O)c3ccccc3)ccc21 (stereo not shown) [N10]

Row | SMILES | Total main peak purity (%)
23 | CC(OC(=O)C(C)C)OC(=O)C1CCn2c(C(=O)c3ccccc3)ccc21 (stereo not shown) [N6] | 90.94

Same assay, conditions: in the dark, Day 10

Row | Total main peak purity (%) | SMILES
24 | 93.36 | CCOC(=O)OC(C)OC(=O)C1CCn2c(C(=O)c3ccccc3)ccc21 (stereo not shown) [N12]
25 | 94.82 | CC(C)OC(=O)OC(C)OC(=O)C1CCn2c(C(=O)c3ccccc3)ccc21 (stereo not shown) [N2]
26 | 94.41 | CC(OC(=O)OC1CCCCC1)OC(=O)C1CCn2c(C(=O)c3ccccc3)ccc21 (stereo not shown) [N10]

Row | SMILES | Total main peak purity (%)
27 | CC(OC(=O)C(C)C)OC(=O)C1CCn2c(C(=O)c3ccccc3)ccc21 (stereo not shown) [N6] | 90.22

Same assay, conditions: related substance, in the dark, Day 0

Row | Ketorolac (%) | SMILES
28 | 0.03 | CCOC(=O)OC(C)OC(=O)C1CCn2c(C(=O)c3ccccc3)ccc21 (stereo not shown) [N12]
29 | 0.03 | CC(C)OC(=O)OC(C)OC(=O)C1CCn2c(C(=O)c3ccccc3)ccc21 (stereo not shown) [N2]
30 | 0.05 | CC(OC(=O)OC1CCCCC1)OC(=O)C1CCn2c(C(=O)c3ccccc3)ccc21 (stereo not shown) [N10]

Row | SMILES | Ketorolac (%)
31 | CC(OC(=O)C(C)C)OC(=O)C1CCn2c(C(=O)c3ccccc3)ccc21 (stereo not shown) [N6] | 0.14

Same assay, conditions: related substance, in the dark, Day 5

Row | Ketorolac (%) | SMILES
32 | 0.07 | CCOC(=O)OC(C)OC(=O)C1CCn2c(C(=O)c3ccccc3)ccc21 (stereo not shown) [N12]
33 | 0.04 | CC(C)OC(=O)OC(C)OC(=O)C1CCn2c(C(=O)c3ccccc3)ccc21 (stereo not shown) [N2]
34 | 0.23 | CC(OC(=O)OC1CCCCC1)OC(=O)C1CCn2c(C(=O)c3ccccc3)ccc21 (stereo not shown) [N10]

Row | SMILES | Ketorolac (%)
35 | CC(OC(=O)C(C)C)OC(=O)C1CCn2c(C(=O)c3ccccc3)ccc21 (stereo not shown) [N6] | 0.13

Same assay, conditions: related substance, in the dark, Day 10

Row | Ketorolac (%) | SMILES
36 | 0.07 | CCOC(=O)OC(C)OC(=O)C1CCn2c(C(=O)c3ccccc3)ccc21 (stereo not shown) [N12]
37 | 0.05 | CC(C)OC(=O)OC(C)OC(=O)C1CCn2c(C(=O)c3ccccc3)ccc21 (stereo not shown) [N2]
38 | 0.37 | CC(OC(=O)OC1CCCCC1)OC(=O)C1CCn2c(C(=O)c3ccccc3)ccc21 (stereo not shown) [N10]

Row | SMILES | Ketorolac (%)
39 | CC(OC(=O)C(C)C)OC(=O)C1CCn2c(C(=O)c3ccccc3)ccc21 (stereo not shown) [N6] | 0.17

Test: in vitro
Settings: human, plasma

Row | half-life at 97.6 µM [h] | SMILES
40 | 0.246 | CCOC(=O)OC(C)OC(=O)C1CCn2c(C(=O)c3ccccc3)ccc21 (stereo not shown) [N12]
41 | 0.643 | CC(C)OC(=O)OC(C)OC(=O)C1CCn2c(C(=O)c3ccccc3)ccc21 (stereo not shown) [N2]

Test: not given
Settings: human, 0 min, 97.6 µM

Row | Content of ketorolac % [%] | Content of the compound % [%] | SMILES
42 | 2.033 ± 0.342 | 97.967 ± 6.878 | CCOC(=O)OC(C)OC(=O)C1CCn2c(C(=O)c3ccccc3)ccc21 (stereo not shown) [N12]
43 | 1.050 ± 0.079 | 98.950 ± 3.765 | CC(C)OC(=O)OC(C)OC(=O)C1CCn2c(C(=O)c3ccccc3)ccc21 (stereo not shown) [N2]

Same assay, conditions: human, 15 min, 97.6 µM

Row | Content of ketorolac % [%] | Content of the compound % [%] | SMILES
44 | 34.203 ± 3.165 | 56.277 ± 3.890 | CCOC(=O)OC(C)OC(=O)C1CCn2c(C(=O)c3ccccc3)ccc21 (stereo not shown) [N12]
45 | 8.860 ± 0.426 | 88.103 ± 2.289 | CC(C)OC(=O)OC(C)OC(=O)C1CCn2c(C(=O)c3ccccc3)ccc21 (stereo not shown) [N2]

Same assay, conditions: human, 30 min, 97.6 µM

Row | Content of ketorolac % [%] | Content of the compound % [%] | SMILES
46 | 53.297 ± 1.296 | 25.590 ± 1.131 | CCOC(=O)OC(C)OC(=O)C1CCn2c(C(=O)c3ccccc3)ccc21 (stereo not shown) [N12]
47 | 20.993 ± 0.561 | 72.813 ± 2.707 | CC(C)OC(=O)OC(C)OC(=O)C1CCn2c(C(=O)c3ccccc3)ccc21 (stereo not shown) [N2]

Same assay, conditions: human, 60 min, 97.6 µM

Row | Content of ketorolac % [%] | Content of the compound % [%] | SMILES
48 | 76.623 ± 10.483 | 5.997 ± 0.976 | CCOC(=O)OC(C)OC(=O)C1CCn2c(C(=O)c3ccccc3)ccc21 (stereo not shown) [N12]
49 | 34.590 ± 1.381 | 47.510 ± 1.739 | CC(C)OC(=O)OC(C)OC(=O)C1CCn2c(C(=O)c3ccccc3)ccc21 (stereo not shown) [N2]

Same assay, conditions: human, 120 min, 97.6 µM

Row | Content of ketorolac % [%] | Content of the compound % [%] | SMILES
50 | 87.973 ± 4.045 | 0 | CCOC(=O)OC(C)OC(=O)C1CCn2c(C(=O)c3ccccc3)ccc21 (stereo not shown) [N12]
51 | 59.790 ± 2.019 | 12.573 ± 0.260 | CC(C)OC(=O)OC(C)OC(=O)C1CCn2c(C(=O)c3ccccc3)ccc21 (stereo not shown) [N2]

Test: not given
Settings: times that of aspirin; cited from earlier work

Row | SMILES | analgesic activity relative to aspirin [times]
52 | O=C(c1ccccc1)c1ccc2n1CCC2C(=O)O (racemic) [Ketorolac, (±)-5-benzoyl-2,3-dihydro-1H-pyrrolizine-1-carboxylic acid] | 800

Same assay, conditions: times that of indomethacin; cited from earlier work

Row | SMILES | analgesic activity relative to indomethacin [times]
53 | O=C(c1ccccc1)c1ccc2n1CCC2C(=O)O (racemic) [Ketorolac, (±)-5-benzoyl-2,3-dihydro-1H-pyrrolizine-1-carboxylic acid] | 60

Same assay, conditions: times that of morphine; cited from earlier work

Row | SMILES | analgesic activity relative to morphine [times]
54 | O=C(c1ccccc1)c1ccc2n1CCC2C(=O)O (racemic) [Ketorolac, (±)-5-benzoyl-2,3-dihydro-1H-pyrrolizine-1-carboxylic acid] | 0.4

Test: Enzymolysis kinetics experiment of compounds in plasma
Settings: human plasma, 37° C., 1 min

Row | SMILES | Content of the compound % [%]
55 | CCCCCCC(=O)OC(C)OC(=O)C1CCn2c(C(=O)c3ccccc3)ccc21 (stereo not shown) [N27] | 100

Same assay, conditions: human plasma, 37° C., 15 min

Row | SMILES | Content of the compound % [%]
56 | CCCCCCC(=O)OC(C)OC(=O)C1CCn2c(C(=O)c3ccccc3)ccc21 (stereo not shown) [N27] | 100

Same assay, conditions: human plasma, 37° C., 30 min

Row | SMILES | Content of the compound % [%]
57 | CCCCCCC(=O)OC(C)OC(=O)C1CCn2c(C(=O)c3ccccc3)ccc21 (stereo not shown) [N27] | 90.63 ± 1.81

Same assay, conditions: human plasma, 37° C., 60 min

Row | SMILES | Content of the compound % [%]
58 | CCCCCCC(=O)OC(C)OC(=O)C1CCn2c(C(=O)c3ccccc3)ccc21 (stereo not shown) [N27] | 63.89 ± 1.20

Same assay, conditions: human plasma, 37° C., 120 min

Row | SMILES | Content of the compound % [%]
59 | CCCCCCC(=O)OC(C)OC(=O)C1CCn2c(C(=O)c3ccccc3)ccc21 (stereo not shown) [N27] | 35.75 ± 1.46

Same assay, conditions: human, plasma

Row | SMILES | half-life at 97.6 µM [h]
60 | CCCCCCC(=O)OC(C)OC(=O)C1CCn2c(C(=O)c3ccccc3)ccc21 (stereo not shown) [N27] | 1.23

Same assay, conditions: summary statement, metabolized in a human body

Row | SMILES | metabolic rates (in words)
61 | CC(OC(=O)C1CCn2c(C(=O)c3ccccc3)ccc21)OC(=O)C1CCn2c(C(=O)c3ccccc3)ccc21 (stereo not shown) [N22] | slow metabolic rates
